Converted amounts (≈) assume the structure as drawn. Where two headings read alike, the source gives them in different places.
Columns and labels:
HuR = target: T1, HuR (Homo sapiens, UniProt Q15717); test: cell-based split firefly luciferase-HuR dimerization assay; settings: for IC50: read-out: HuR IC50
T1 construct: expressed in transfected cells; host or cells: U251 glioma cells, doxycycline-inducible constructs
Experimental: (§1) The oncogenic activity of HuR is driven by subcellular localization into the cytoplasm and formation of multimers of HuR. To develop cell based assays to characterize the ability of small molecules to disrupt this process, a split luciferase assay detecting the formation of HuR dimers was developed. The assays were performed in 96 well plates with clear bottom (Corning Inc., Corning, NY). Cells with designed constructs (30,000-50,000 in number) were plated per well; the constructs were induced by doxycycline (0.75 ug/ml) for 48 hours. The evaluated compounds at different concentrations and the corresponding vehicle as the control were administered for 6 hours. The luminescence signals were detected by using InfinitiM200 plate reader (TECAN, Morrisville, NC) in the presence of the luciferase substrate luciferin (D-Luciferin, potassium salt), which was purchased from GoldBio (St Louis, MO). A multichannel pipette (XL 3000I™, Denville Scientific, South Plainfield, NJ) was used in all procedures to ensure the experiment quality.
The assay used the coding sequence of HuR in frame with the N-terminus of firefly luciferase or the C-terminus as depicted in FIG. 2A. When HuR forms dimers in this case, luciferase is generated and with luciferin present, luminescence is generated.
(§2) Squares represent luminescence signal from reporter representing HuR dimers (U251 cells co-expressing HuR-Nluc and HuR-Cluc constructs); circles represent luminescence signal from control reporter (U251 cells expressing Fluc construct). Results are shown as mean+SD.

[1] = system: U251 cells expressing Fluc construct; test: control Fluc (full length luciferase) reporter assay in U251 cells; format: cell-based; settings: Homo sapiens, U-251, 6 h, read-out: Fluc Imax % Inh; for inhibition at 50 µM: Concn 50 uM
Experimental: as §1, with “quality. […]” for “quality.”
as §2

[2] = aqueous solubility at pH 7.4; format: physicochemical; settings: for solubility: aqueous medium at pH 7.4, pH 7.4, aqueous buffer, read-out: Sol @ pH 7.4
Experimental: (§4) Selected compounds were assessed for their aqueous solubility, Log D and mouse and human liver microsomal stability.

Log D at pH 7.4 = format: physicochemical
Experimental: as §4

[3] = Mouse liver microsomal stability in vitro; format: in vitro ADME; settings: liver microsomes, read-out: MLM t1/2
Experimental: as §4

in vitro = settings: human, liver microsomes
Experimental: as §4

AAK1 = AAK1 (Homo sapiens, UniProt Q2M2I8); test: SelectScreen kinase profiling, LanthaScreen Binding
Sequence of AAK1 (Q2M2I8 whole entry): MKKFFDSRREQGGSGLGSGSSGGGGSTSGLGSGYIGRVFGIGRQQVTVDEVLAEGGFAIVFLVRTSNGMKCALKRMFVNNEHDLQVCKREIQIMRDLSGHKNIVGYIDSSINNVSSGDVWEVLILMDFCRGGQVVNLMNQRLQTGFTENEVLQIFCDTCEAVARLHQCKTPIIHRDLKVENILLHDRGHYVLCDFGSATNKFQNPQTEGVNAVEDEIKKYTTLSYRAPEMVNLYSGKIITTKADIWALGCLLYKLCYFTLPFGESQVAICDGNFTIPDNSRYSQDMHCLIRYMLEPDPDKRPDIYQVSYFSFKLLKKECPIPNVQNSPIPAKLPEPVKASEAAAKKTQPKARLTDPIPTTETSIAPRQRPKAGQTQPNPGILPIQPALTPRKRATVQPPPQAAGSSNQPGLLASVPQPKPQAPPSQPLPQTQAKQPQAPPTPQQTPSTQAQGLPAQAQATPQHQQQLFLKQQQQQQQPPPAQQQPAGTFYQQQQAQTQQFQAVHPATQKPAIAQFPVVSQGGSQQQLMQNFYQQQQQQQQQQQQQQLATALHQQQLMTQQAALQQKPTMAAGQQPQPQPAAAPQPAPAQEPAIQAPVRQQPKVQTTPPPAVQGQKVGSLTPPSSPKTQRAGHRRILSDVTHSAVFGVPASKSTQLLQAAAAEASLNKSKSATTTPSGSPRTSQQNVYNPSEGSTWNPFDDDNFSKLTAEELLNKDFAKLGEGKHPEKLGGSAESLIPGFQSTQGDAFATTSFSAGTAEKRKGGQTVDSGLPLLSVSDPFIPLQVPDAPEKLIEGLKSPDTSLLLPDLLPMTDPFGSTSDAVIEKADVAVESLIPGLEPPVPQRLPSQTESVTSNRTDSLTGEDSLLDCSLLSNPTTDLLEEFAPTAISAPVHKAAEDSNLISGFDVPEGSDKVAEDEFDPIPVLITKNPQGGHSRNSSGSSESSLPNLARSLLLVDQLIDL
Experimental: (§3) The kinase inhibitory potentials of compounds as described herein (e.g., SRI-42127 and SRI-41664) were evaluated by ThermoFisher Scientific's SelectScreen™ Kinase Profiling Service. The following kinase inhibitory assays were utilized: ZLYTE (Madison, WI) for NTRK1, PIM1, and cMET kinases; LanthaScreen Binding (Madison, WI) for AAK1 kinase; and Adapta (Madison, WI) for IRAK1 kinase.

IRAK1 = IRAK1 (Homo sapiens, UniProt P51617); test: SelectScreen kinase profiling, Adapta; format: biochemical
Sequence of IRAK1 (P51617 whole entry): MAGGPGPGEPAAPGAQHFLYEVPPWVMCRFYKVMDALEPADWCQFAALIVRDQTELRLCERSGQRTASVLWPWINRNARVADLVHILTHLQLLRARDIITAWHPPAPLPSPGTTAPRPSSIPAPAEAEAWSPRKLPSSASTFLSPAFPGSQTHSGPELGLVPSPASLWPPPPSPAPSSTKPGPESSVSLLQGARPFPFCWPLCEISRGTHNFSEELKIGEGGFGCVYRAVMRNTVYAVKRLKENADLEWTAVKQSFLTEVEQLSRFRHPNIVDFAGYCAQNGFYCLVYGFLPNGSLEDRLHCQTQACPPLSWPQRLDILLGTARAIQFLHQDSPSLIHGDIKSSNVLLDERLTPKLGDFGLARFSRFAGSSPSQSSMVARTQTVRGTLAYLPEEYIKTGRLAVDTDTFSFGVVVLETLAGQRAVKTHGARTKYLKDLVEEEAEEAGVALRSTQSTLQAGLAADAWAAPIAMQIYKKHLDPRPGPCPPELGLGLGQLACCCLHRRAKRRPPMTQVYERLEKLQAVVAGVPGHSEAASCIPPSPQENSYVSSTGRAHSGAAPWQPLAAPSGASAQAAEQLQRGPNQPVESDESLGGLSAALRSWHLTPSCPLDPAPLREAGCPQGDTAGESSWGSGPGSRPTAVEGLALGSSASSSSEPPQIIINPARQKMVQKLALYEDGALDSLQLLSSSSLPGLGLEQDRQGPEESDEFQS
Experimental: as §3

PIM1 = PIM1 (Homo sapiens, UniProt P11309); test: SelectScreen kinase profiling, ZLYTE; format: biochemical
Sequence of PIM1 (P11309 whole entry): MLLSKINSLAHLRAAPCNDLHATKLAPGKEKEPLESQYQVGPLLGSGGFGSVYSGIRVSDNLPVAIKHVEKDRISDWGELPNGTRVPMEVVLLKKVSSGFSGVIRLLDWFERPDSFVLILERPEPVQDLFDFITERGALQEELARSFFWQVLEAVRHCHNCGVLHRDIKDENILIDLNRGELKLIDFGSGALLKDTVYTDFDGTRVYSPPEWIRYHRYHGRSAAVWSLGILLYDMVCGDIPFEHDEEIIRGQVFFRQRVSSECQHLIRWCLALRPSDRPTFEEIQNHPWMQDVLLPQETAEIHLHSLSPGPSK
Experimental: as §3

TRKA (NTRK1) = TRKA (NTRK1) (Homo sapiens, UniProt P04629); test: SelectScreen kinase profiling, ZLYTE; format: biochemical
Sequence of TRKA (NTRK1) (P04629 33-796): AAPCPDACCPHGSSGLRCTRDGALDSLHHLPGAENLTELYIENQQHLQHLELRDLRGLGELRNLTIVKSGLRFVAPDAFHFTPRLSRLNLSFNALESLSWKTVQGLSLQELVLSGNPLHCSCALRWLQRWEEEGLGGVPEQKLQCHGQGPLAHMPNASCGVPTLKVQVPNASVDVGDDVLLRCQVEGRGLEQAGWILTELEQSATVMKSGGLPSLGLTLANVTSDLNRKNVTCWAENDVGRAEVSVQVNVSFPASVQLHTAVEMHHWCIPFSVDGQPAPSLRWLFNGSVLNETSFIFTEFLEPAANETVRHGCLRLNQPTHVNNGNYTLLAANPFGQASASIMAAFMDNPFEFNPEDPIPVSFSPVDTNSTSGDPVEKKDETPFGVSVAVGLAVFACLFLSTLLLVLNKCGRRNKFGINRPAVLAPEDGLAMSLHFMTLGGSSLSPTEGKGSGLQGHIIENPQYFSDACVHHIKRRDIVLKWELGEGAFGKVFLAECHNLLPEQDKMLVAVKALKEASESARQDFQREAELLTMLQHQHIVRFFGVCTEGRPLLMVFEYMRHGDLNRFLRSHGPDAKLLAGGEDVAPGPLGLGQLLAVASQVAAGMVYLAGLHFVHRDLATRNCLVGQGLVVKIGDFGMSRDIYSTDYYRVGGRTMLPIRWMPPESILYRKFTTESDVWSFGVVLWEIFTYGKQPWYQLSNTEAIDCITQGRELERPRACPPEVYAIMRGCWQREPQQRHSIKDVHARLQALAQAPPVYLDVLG
Experimental: as §3

cMET = cMET (Homo sapiens, UniProt P08581); test: SelectScreen kinase profiling, ZLYTE; format: biochemical
Sequence of cMET (P08581 25-1390): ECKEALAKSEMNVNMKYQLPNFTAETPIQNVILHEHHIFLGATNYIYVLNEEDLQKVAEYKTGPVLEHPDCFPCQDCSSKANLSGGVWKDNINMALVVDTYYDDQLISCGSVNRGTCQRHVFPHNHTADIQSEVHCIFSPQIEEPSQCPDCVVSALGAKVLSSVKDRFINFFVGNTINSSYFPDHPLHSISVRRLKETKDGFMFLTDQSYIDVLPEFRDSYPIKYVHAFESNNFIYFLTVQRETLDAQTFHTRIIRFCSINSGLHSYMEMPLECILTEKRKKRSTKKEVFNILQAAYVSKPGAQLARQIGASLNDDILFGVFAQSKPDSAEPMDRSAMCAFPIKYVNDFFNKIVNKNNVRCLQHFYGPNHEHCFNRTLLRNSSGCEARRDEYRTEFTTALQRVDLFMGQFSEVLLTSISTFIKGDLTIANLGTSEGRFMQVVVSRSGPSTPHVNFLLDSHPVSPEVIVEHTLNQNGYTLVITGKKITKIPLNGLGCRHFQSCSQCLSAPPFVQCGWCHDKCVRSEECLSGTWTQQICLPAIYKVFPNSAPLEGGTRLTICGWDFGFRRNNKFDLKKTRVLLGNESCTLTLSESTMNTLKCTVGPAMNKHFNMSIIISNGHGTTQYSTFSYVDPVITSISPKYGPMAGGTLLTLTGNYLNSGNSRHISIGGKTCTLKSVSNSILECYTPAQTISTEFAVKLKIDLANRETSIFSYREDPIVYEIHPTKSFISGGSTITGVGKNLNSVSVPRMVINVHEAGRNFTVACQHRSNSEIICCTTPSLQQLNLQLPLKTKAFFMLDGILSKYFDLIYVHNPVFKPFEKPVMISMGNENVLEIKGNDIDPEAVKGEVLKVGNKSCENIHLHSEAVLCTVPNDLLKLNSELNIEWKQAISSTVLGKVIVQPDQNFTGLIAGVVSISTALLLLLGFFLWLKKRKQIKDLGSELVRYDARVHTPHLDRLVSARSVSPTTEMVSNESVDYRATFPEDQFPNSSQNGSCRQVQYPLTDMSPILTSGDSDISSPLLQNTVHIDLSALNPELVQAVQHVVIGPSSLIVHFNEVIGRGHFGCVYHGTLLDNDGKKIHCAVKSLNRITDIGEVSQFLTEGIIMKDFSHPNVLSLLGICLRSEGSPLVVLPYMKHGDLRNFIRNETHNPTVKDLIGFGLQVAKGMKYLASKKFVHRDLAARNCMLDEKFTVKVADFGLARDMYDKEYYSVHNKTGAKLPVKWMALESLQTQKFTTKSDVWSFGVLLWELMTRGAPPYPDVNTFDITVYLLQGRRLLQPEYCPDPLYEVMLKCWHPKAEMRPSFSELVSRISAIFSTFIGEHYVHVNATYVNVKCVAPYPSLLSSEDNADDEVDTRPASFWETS
Experimental: as §3

[4] = U251 cells co-expressing HuR-Nluc and HuR-Cluc, 6 hours of treatment
[5] = split luciferase HuR dimerization assay, compounds administered for 6 hours

T1 sequence (Q15717 whole entry): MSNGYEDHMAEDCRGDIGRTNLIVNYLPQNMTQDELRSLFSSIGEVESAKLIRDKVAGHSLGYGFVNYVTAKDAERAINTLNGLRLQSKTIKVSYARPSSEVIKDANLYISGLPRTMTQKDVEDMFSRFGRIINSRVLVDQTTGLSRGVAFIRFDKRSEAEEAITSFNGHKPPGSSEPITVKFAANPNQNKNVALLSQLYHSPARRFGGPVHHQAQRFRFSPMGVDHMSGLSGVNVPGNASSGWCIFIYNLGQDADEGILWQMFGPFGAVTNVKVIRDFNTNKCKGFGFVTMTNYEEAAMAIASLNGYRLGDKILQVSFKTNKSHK

Row | SMILES | HuR N/C Imax % Inh (HuR; Concn 50 uM) [%] | IC50 (HuR; [4]) [µM] | inhibition at 50 µM [1] [%] | aqueous solubility (in words) [2] | IC50 (HuR; [5]) [µM] | solubility [2] [µM] | logD (Log D at pH 7.4) | half-life [3] [min] | half-life (in vitro) [min] | HuR inhibition activity (in words) (HuR) | HuR N/C Imax % Inh (HuR; Concn 100 uM) [%] | inhibition at 100 µM ([1]; Concn 100 uM) [%] | HuR IC50 (HuR; [5]) | IC50 (AAK1) [µM] | IC50 (IRAK1) [µM] | IC50 (PIM1) [µM] | IC50 (TRKA (NTRK1)) [µM] | IC50 (cMET) [µM]
1 | c1cc2cn[nH]c2cc1-n1nnc2cnc(NC3CCOCC3)nc21 [Compound 4, 3-(1H-Indazol-6-yl)-N-(tetrahydro-2H-pyran-4-yl)-3H-[1,2,3]triazolo[4,5-d]pyrimidin-5-amine] | 85 | 5 | 36 | improved aqueous solubility | – | – | – | – | – | – | – | – | – | – | – | – | – | –
2 | CCCN(C)c1ccc2ncc(-c3ccc4cnn(C)c4c3)n2n1 [Compound 30, N-Methyl-3-(1-methyl-1H-indazol-6-yl)-N-propylimidazo[1,2-b]pyridazin-6-amine] | 91 | 2.2 | 36 | – | 2.2 | 2.5 (≈ 0.801 µg/mL) | > 4.55 | 1.3 | 7.9 | – | – | – | – | – | – | – | – | –
3 | CC1(C)CC(Nc2ccc3ncc(-c4ccc5[nH]ncc5c4)n3n2)CCO1 (stereo not shown) [Compound 45, N-(2,2-Dimethyltetrahydro-2H-pyran-4-yl)-3-(1H-indazol-5-yl)imidazo[1,2-b]pyridazin-6-amine] | 92 | 1.1 | 25 | – | 1.1 | 3.4 (≈ 1.23 µg/mL) | > 4.06 | 8.7 | 7.2 | potent activity | – | – | – | – | – | – | – | –
4 | CCCN(C)c1ccc2ncc(-c3ccc4cn[nH]c4c3)n2n1 [Compound 24, 3-(1H-Indazol-6-yl)-N-methyl-N-propylimidazo[1,2-b]pyridazin-6-amine] | – | 2.2 | – | – | 2.2 | 10.9 (≈ 3.34 µg/mL) | > 4.18 | 3.1 | 9.7 | – | 93 | 10 | – | – | – | – | – | –
5 | FC(F)(F)CNc1ccc2ncc(-c3ccc4[nH]ncc4c3)n2n1 [Compound 50, 3-(1H-Indazol-5-yl)-N-(2,2,2-trifluoroethyl)imidazo[1,2-b]pyridazin-6-amine] | 93 | 0.19 | 26 | – | 0.19 | 2.6 (≈ 0.864 µg/mL) | > 4.15 | 2.6 | 12.1 | – | – | – | – | – | – | – | – | –
6 | CN(c1ccc2ncc(-c3ccc4cc[nH]c4c3)n2n1)C1CCOCC1 [Compound 13] | – | – | – | – | 28 | 12.8 (≈ 4.45 µg/mL) | 2.2 | 5.6 | 6.8 | – | – | – | – | – | – | – | – | –
7 | CN(c1cnn(C2CCOCC2)c1)c1ncc2nnn(-c3ccc4cn[nH]c4c3)c2n1 [Compound 3, 3-(1H-Indazol-6-yl)-N-methyl-N-(1-(tetrahydro-2H-pyran-4-yl)-1H-pyrazol-4-yl)-3H-[1,2,3]triazolo[4,5-d]pyrimidin-5-amine] | – | – | – | poor aqueous solubility | – | – | – | – | – | – | – | – | – | – | – | – | – | –
8 | CCCN(C)c1ccc2ncc(-c3ccc4[nH]nc(C(C)=O)c4c3)n2n1 [Compound 53, 1-(5-(6-(Methyl(propyl)amino)imidazo[1,2-b]pyridazin-3-yl)-1H-indazol-3-yl)ethan-1-one] | 72 | 6 | 10 | – | 6 | < 1 | > 4.48 | 1.3 | 6.3 | – | – | – | – | – | – | – | – | –
9 | Cc1n[nH]c2cc(-c3cnc4ccc(N(C)C5CCOCC5)nn34)ccc12 [Compound 32, N-Methyl-3-(3-methyl-1H-indazol-6-yl)-N-(tetrahydro-2H-pyran-4-yl)imidazo[1,2-b]pyridazin-6-amine] | – | – | – | – | > 50 | < 1 | > 4.35 | 7.3 | 9 | – | – | – | – | – | – | – | – | –
10 | Cn1ncc2ccc(-c3cnc4ccc(NC5CCOCC5)nn34)cc21 [Compound 20] | 93 | 1.2 | 35 | – | 1.2 | 79.6 (≈ 27.7 µg/mL) | 2.9 | 8.1 | 11.6 | – | – | – | – | – | – | – | – | –
11 | CN(c1ccc2ncc(-c3ccc4cn[nH]c4c3)n2n1)C1CCC(F)(F)CC1 [Compound 29] | – | – | – | – | – | 77.3 (≈ 29.6 µg/mL) | 0.9 | 15.3 | 82.8 | – | – | – | Insoluble^b | – | – | – | – | –
12 | CCCNc1ccc2ncc(-c3ccc4[nH]ncc4c3)n2n1 [Compound 48] | 90 | 0.7 | 29 | – | 0.7 | 3.2 (≈ 0.936 µg/mL) | – | 2.2 | 6.1 | – | – | – | – | – | – | – | – | –
13 | FC1(F)CCC(Nc2ccc3ncc(-c4ccc5cn[nH]c5c4)n3n2)CC1 [Compound 23, N-(4,4-Difluorocyclohexyl)-3-(1H-indazol-6-yl)imidazo[1,2-b]pyridazin-6-amine] | 92 | 2.8 | 39 | – | 2.8 | 2.1 (≈ 0.774 µg/mL) | > 4.23 | 3.9 | 27.3 | – | – | – | – | – | – | – | – | –
14 | CN(c1ccc2ncc(-c3cnc4[nH]ncc4c3)n2n1)C1CCOCC1 [Compound 55, N-Methyl-3-(1H-pyrazolo[3,4-b]pyridin-5-yl)-N-(tetrahydro-2H-pyran-4-yl)imidazo[1,2-b]pyridazin-6-amine] | 90 | 1.2 | 10 | – | 1.2 | – | – | – | – | – | – | – | – | – | – | – | – | –
15 | FC1(F)CCC(Nc2ccc3ncc(-c4ccc5[nH]ncc5c4)n3n2)CC1 [Compound 46, N-(4,4-Difluorocyclohexyl)-3-(1H-indazol-5-yl)imidazo[1,2-b]pyridazin-6-amine] | 91 | 2.1 | 17 | – | 2.1 | 1 (≈ 0.368 µg/mL) | > 4.16 | 4.4 | 11.5 | – | – | – | – | – | – | – | – | –
16 | CCN(c1ccc2ncc(-c3ccc4cn[nH]c4c3)n2n1)C1CCOCC1 [Compound 26] | – | – | – | – | > 50 | – | – | – | – | inactive | – | – | – | 15.7 | > 30 | > 30 | > 30 | > 30
